Data reported in US6372737B1 (priority 1996, dated 2002).

Columns and labels:
Format in all cases: in vivo
[1] = system: Erysiphe graminis f.sp. hordei; assay: Erysiphe test (barley)/curative; conditions: curative, 7 days after inoculation
Procedure: (§1) Solvent: 25 parts by weight of N,N-dimethylacetamide
(§2) Emulsifier: 0.6 part by weight of alkylaryl polyglycol ether
(§3) To produce a suitable preparation of active compound, 1 part by weight of active compound or active compound combination is mixed with the stated amounts of solvent and emulsifier, and the concentrate is diluted with water to the desired concentration.
To test for curative activity, young plants are dusted with spores of Erysiphe graminis f.sp. hordei. 48 hours after the inoculation, the plants are sprayed with the preparation of active compound at the stated application rate.
(§4) The plants are placed in a greenhouse at a temperature of about 20° C. and a relative atmospheric humidity of about 80%, in order to promote the development of mildew pustules.
(§5) Evaluation is carried out 7 days after the inoculation. 0% means an efficacy which corresponds to that of the control, whereas an efficacy of 100% means that no infection is observed.

Leptosphaeria nodorum [2] = assay: Leptosphaeria nodorum test (wheat)/protective; conditions: application rate 6.25 g/ha, protective, 10 days after inoculation; for pest or weed control at 6.25 g/ha: Parastagonospora nodorum, 240 h, read-out: Efficacy in %
Procedure: as §1, §2, §3
(§6) To test for protective activity, young plants are sprayed with the preparation of active compound at the stated application rate. After the spray coating has dried on, the plants are sprayed with a spore suspension of Leptosphaeria nodorum. The plants remain in an incubation cabin at 20EC and 100% relative atmospheric humidity for 48 hours.
The plants are placed in a greenhouse at a temperature of about 15° C. and a relative atmospheric humidity of 80%.
(§7) Evaluation is carried out 10 days after the inoculation. 0% means an efficacy which corresponds to that of the control, whereas an efficacy of 100% means that no infection is observed.

Puccinia recondita [3] = assay: Puccinia test (wheat)/protective; conditions: application rate 6.25 g/ha, protective, 10 days after inoculation; for pest or weed control at 6.25 g/ha: Puccinia recondita, 240 h, read-out: Efficacy in %
Procedure: as §1, §2, §3
as §6, with “conidia” for “spore”, “Puccinia recondita.” for “Leptosphaeria nodorum.”, “20° C.” for “20EC”
The plants are then placed in a greenhouse at a temperature of about 20° C. and a relative atmospheric humidity of 80%, in order to promote the development of rust pustules.
as §7

Sphaerotheca fuliginea = assay: Sphaerotheca test (cucumber)/protective; conditions: protective, 10 days after inoculation; for Emax at 2.5 g/ha / Emax at 12.5 g/ha: Podosphaera fuliginea, 240 h, read-out: % efficacy; for Emax at 12.5 g/ha: application rate 12.5 g/ha
Procedure: To test for protective activity, young plants are sprayed with the commercial active compound preparation at the stated application rate. After the spray coating has dried on, the plants are inoculated with an aqueous spore suspension of Sphaerotheca fuliginea. The plants then remain in a greenhouse at about 23° C. and about 70% relative atmospheric humidity.
Evaluation is carried out 10 days after the inoculation. 0% means an efficacy corresponding to that of the control, and an efficacy of 100% means that no infection is observed.

Phytophthora infestans = assay: whole plant or invertebrate
Fusarium nivale = Fusarium nivale test (triticale)/seed treatment; conditions: dry seed dressing, about 3 weeks after sowing
Procedure: About 3 weeks after sowing, the plants are evaluated for symptoms of snow mould.

[4] = system: Erysiphe graminis fsp. tritici; assay: Erysiphe test (wheat)/protective; conditions: protective, 7 days after inoculation
Procedure: as §1, §2, §3
To test for protective activity, young plants are sprayed with the preparation of active compound at the stated application rate.
After the spray coating has dried on, the plants are dusted with spores of Erysiphe graminis fsp. tritici.
as §4, §5

Rhizoctonia solani = Rhizoctonia solani test (cotton)/seed treatment; conditions: application rate 75 mg/kg of seed, dry seed dressing, after 8 days
Procedure: The active compounds are applied as dry seed dressing. This is prepared by extending the respective active compound with ground mineral to give a finely pulverulent mixture which ensures uniform distribution on the seed surface.
To dress the seed, the infected seed together with the seed dressing is shaken for 3 minutes in a sealed glass flask.
2×50 corns of seed are sown at a depth of 2 cm into standard soil which is infected with Rhizoctonia solani, and the seeds are cultivated in a greenhouse at a temperature of about 22° C. in seed trays which receive a light regimen of 15 hours per day.
Evaluation is carried out after 8 days. 0% means an efficacy which corresponds to that of the untreated control, while an efficacy of 100% means that no disease is observed.

Leptosphaeria nodorum [5] = assay: Leptosphaeria nodorum test (wheat)/curative; conditions: curative, 10 days after inoculation
Procedure: as §1, §2, §3
(§8) To test for curative activity, young plants are sprayed with a conidia suspension of Leptosphaeria nodorum. The plants remain in an incubation cabin at 20° C. and 100% relative atmospheric humidity for 48 hours and are then sprayed with the preparation of active compound at the stated application rate.
The plants are placed in a greenhouse at a temperature of about 15° C. and a relative atmospheric humidity of about 80%.
as §7

Pyrenophora teres = Pyrenophora teres test (barley)/curative; conditions: application rate 6.25 g/ha, curative, 7 days after inoculation
Procedure: as §1, §2, §3
as §8, with “Pyrenophora teres.” for “Leptosphaeria nodorum.”, “hours. The plants” for “hours and”, “subsequently” for “then”
The plants are placed in a greenhouse at a temperature of about 20° C. and a relative atmospheric humidity of about 80%.
as §5

Botrytis cinerea = assay: Botrytis test (beans)/protective; conditions: 48 h, application rate 250 g/ha, protective, two days after inoculation, read-out: % efficacy
Procedure: To test for protective activity, young plants are sprayed with the commercial active compound preparation at the stated application rate. After the spray coating has dried on, 2 small pieces of agar covered with Botrytis cinerea are placed on each leaf. The inoculated plants are placed in a darkened chamber at about 20° C. and 100% relative atmospheric humidity.
Two days after the inoculation, the size of the infected spots on the leaves is evaluated. 0% means an efficacy corresponding to that of the control, and an efficacy of 100% means that no infection is observed.

[6] = system: Erysiphe graminis f.sp. tritici; assay: Erysiphe test (wheat)/curative; conditions: curative, 7 days after inoculation
Procedure: as §1, §2, §3
To test for curative activity, young plants are dusted with spores of Erysiphe graminis f.sp. tritici. 48 hours after the inoculation, the plants are sprayed with the preparation of active compound at the stated application rate.
as §4, §5

Puccinia recondita [7] = assay: Puccinia test (wheat)/curative; conditions: application rate 6.25 g/ha, curative, 10 days after inoculation
Procedure: as §1, §2, §3
as §8, with “Puccinia recondita.” for “Leptosphaeria nodorum.”, “hours. The plants” for “hours and”, “subsequently” for “then”
The plants are placed in a greenhouse at a temperature of about 20° C. and a relative atmospheric humidity of about 80%, in order to promote the development of rust pustules.
as §7

[8] = Phytophthora infestans, in Solanum lycopersicum, 72 h, read-out: % efficacy
[9] = application rate 25 mg/kg of seed
[10] = application rate 75 mg/kg of seed
[11] = application rate 5 g/ha, tomato, protective, 3 days after inoculation

Fc1ccc([C@]2(Cn3cncn3)O[C@H]2c2ccccc2Cl)cc1 (racemic) [(V), epoxiconazole]
Efficacy in % ([1]; application rate 12.5 g/ha): 92%
pest or weed control at 6.25 g/ha (Leptosphaeria nodorum [2]): 50%
pest or weed control at 6.25 g/ha (Puccinia recondita [3]): 81%

CN(C)S(=O)(=O)N(SC(F)(Cl)Cl)c1ccccc1 [(B1), dichlorofluanide]
% efficacy (Sphaerotheca fuliginea; application rate 25 g/ha): 20%

Cc1ccc(N(SC(F)(Cl)Cl)S(=O)(=O)N(C)C)cc1 [(B2), tolylfluanide]
% efficacy (Sphaerotheca fuliginea; application rate 25 g/ha): 22%

CC(C)(C)C(O)C(Oc1ccc(-c2ccccc2)cc1)n1cncn1 (centres unmarked) [(C), bitertanol]
Emax at 2.5 g/ha (Sphaerotheca fuliginea; application rate 2.5 g/ha): 20%

CC(C)(C)C(O)(CCc1ccc(Cl)cc1)Cn1cncn1 (centres unmarked) [(D), tebuconazole]
Emax at 5 g/ha (Phytophthora infestans; [8]): 26%
Efficacy in % (Fusarium nivale; [9]): 20%
Efficacy in % ([1]; application rate 6.25 g/ha): 33%
Efficacy in % ([1]; application rate 25 g/ha): 83%
Efficacy in % ([4]; application rate 6.25 g/ha): 0%
pest or weed control at 6.25 g/ha (Leptosphaeria nodorum [2]): 25%
pest or weed control at 6.25 g/ha (Puccinia recondita [3]): 38%

CC(C)(C)C(=O)C(Oc1ccc(Cl)cc1)n1cncn1 (centres unmarked) [(E), triadimefon]
Emax at 2.5 g/ha (Sphaerotheca fuliginea; application rate 2.5 g/ha): 30%

CC(C)(C)C(O)C(Oc1ccc(Cl)cc1)n1cncn1 (centres unmarked) [(F), triadimenol]
Emax at 5 g/ha (Phytophthora infestans; [8]): 0%
Efficacy in % (Fusarium nivale; [9]): 52%
Efficacy in % (Rhizoctonia solani): 48%
Efficacy in % ([1]; application rate 6.25 g/ha): 67%
Efficacy in % (Leptosphaeria nodorum [5]; application rate 6.25 g/ha): 25%
Efficacy in % (Pyrenophora teres): 0%
pest or weed control at 6.25 g/ha (Leptosphaeria nodorum [2]): 0%
pest or weed control at 6.25 g/ha (Puccinia recondita [3]): 13%

N#Cc1c[nH]cc1-c1cccc(Cl)c1Cl [(Fenpiclonil) V, fenpiclonil]
Efficacy in % (Fusarium nivale; [10]): 67%

O=C1c2ccccc2C(=O)N1SC(Cl)(Cl)Cl [(K), folpet]
Emax at 10 g/ha (Phytophthora infestans; [8]): 27%

COc1ccc(/C(=C/C(=O)N2CCOCC2)c2ccc(Cl)cc2)cc1OC [(L), dimetomorph]
Emax at 1 g/ha (Phytophthora infestans; [8]): 0%

COCC(=O)N(c1c(C)cccc1C)C(C)C(=O)OC (centres unmarked) [(N), metalaxyl]
Emax at 5 g/ha (Phytophthora infestans; [8]): 1%

CCO[PH](=O)O [(O), fosetyl-Al]
Emax at 250 g/ha (Botrytis cinerea): 4%

Cc1cc(C)nc(Nc2ccccc2)n1 [(Q), pyrimethanil]
Emax at 12.5 g/ha (Sphaerotheca fuliginea): 10%

Cc1cc(C2CC2)nc(Nc2ccccc2)n1 [(R), cyprodinyl]
Emax at 5 g/ha (Phytophthora infestans; [8]): 0%
Efficacy in % ([6]; application rate 25 g/ha): 17%
Efficacy in % (Leptosphaeria nodorum [5]; application rate 6.25 g/ha): 50%
Efficacy in % (Puccinia recondita [7]): 33%
Efficacy in % ([4]; application rate 12.5 g/ha): 0%
pest or weed control at 6.25 g/ha (Leptosphaeria nodorum [2]): 25%
pest or weed control at 6.25 g/ha (Puccinia recondita [3]): 13%

CO/N=C(\C(=O)OC)c1ccccc1COc1ccccc1C [(T), kresoxim-methyl]
Emax at 1 g/ha (Phytophthora infestans; [8]): 14%
Efficacy in % ([1]; application rate 12.5 g/ha): 67%
Efficacy in % ([6]; application rate 6.25 g/ha): 0%
Efficacy in % (Leptosphaeria nodorum [5]; application rate 12.5 g/ha): 50%
Efficacy in % ([4]; application rate 25 g/ha): 86%
pest or weed control at 6.25 g/ha (Leptosphaeria nodorum [2]): 0%
pest or weed control at 6.25 g/ha (Puccinia recondita [3]): 25%

CO/C=C(/C(=O)OC)c1ccccc1Oc1cc(Oc2ccccc2C#N)ncn1 [(U), azoxystrobin]
Emax at 2.5 g/ha (Sphaerotheca fuliginea; application rate 2.5 g/ha): 57%

CC1(C)CCC(Cc2ccc(Cl)cc2)C1(O)Cn1cncn1 (centres unmarked) [(W), metconazole]
Efficacy in % ([1]; application rate 6.25 g/ha): 33%
Efficacy in % (Leptosphaeria nodorum [5]; application rate 12.5 g/ha): 25%
Efficacy in % (Puccinia recondita [7]): 50%
Efficacy in % ([4]; application rate 6.25 g/ha): 43%
pest or weed control at 6.25 g/ha (Leptosphaeria nodorum [2]): 50%
pest or weed control at 6.25 g/ha (Puccinia recondita [3]): 75%

N#Cc1c[nH]cc1-c1cccc2c1OC(F)(F)O2 [(Y), fludioxonil]
Efficacy in % (Fusarium nivale; [10]): 92%
Efficacy in % ([6]; application rate 25 g/ha): 0%
pest or weed control at 6.25 g/ha (Leptosphaeria nodorum [2]): 25%
pest or weed control at 6.25 g/ha (Puccinia recondita [3]): 13%

CSC(=O)c1cccc2nnsc12 [(β)]
% efficacy (Phytophthora infestans; [11]): 0%

CCCN(CC)CC1COC2(CCC(C(C)(C)C)CC2)O1 (centres unmarked) [(δ), 8-t-butyl-2-(N-ethyl-N-n-propyl-amino)-methyl-1,4-dioxaspiro[5.4]-decane]
% efficacy (Sphaerotheca fuliginea; application rate 2.5 g/ha): 10%
Efficacy in % ([1]; application rate 6.25 g/ha): 0%
Efficacy in % (Leptosphaeria nodorum [5]; application rate 12.5 g/ha): 25%
Efficacy in % ([4]; application rate 6.25 g/ha): 14%
Efficacy in % (Leptosphaeria nodorum [2]): 25%
Efficacy in % (Puccinia recondita [3]): 13%

CC1(C(=O)Nc2ccc(O)c(Cl)c2Cl)CCCCC1 [(ε), 2,3-dichloro-4-(1-methylcyclohexylcarbonylamino)-phenol]
Emax at 5 g/ha (Phytophthora infestans; [8]): 14%

O=C1C2CC=CCC2C(=O)N1SC(Cl)(Cl)Cl (centres unmarked) [(θ), captan]
Emax at 12.5 g/ha (Sphaerotheca fuliginea): 0%

O=[N+]([O-])c1cc(C(F)(F)F)c(Cl)c([N+](=O)[O-])c1Nc1ncc(C(F)(F)F)cc1Cl [(π), fluazinam]
Emax at 5 g/ha (Phytophthora infestans; [8]): 11%

O=C(Nc1ccccc1)N(Cc1ccc(Cl)cc1)C1CCCC1 [(ρ), pencycuron]
Efficacy in % (Fusarium nivale; [9]): 29%

CCC1(C(=O)N[C@H](C)c2ccc(Cl)cc2)C(C)C1(Cl)Cl (stereo partly drawn) [(ω), N-(R)-[1-(4-chloro-phenyl)-ethyl]-2,2-dichloro-1-ethyl-3t-methyl-1r-cyclopropane-carboxarnide]
% efficacy (Phytophthora infestans; [11]): 5%

cymoxanil [(M)]
% efficacy (Phytophthora infestans; in vivo): 12%

mancozeb [(II)]
% efficacy (Phytophthora infestans; application rate 50 g/ha, tomato, protective, 3 days after inoculation): 54%

propineb [(A)]
% efficacy (Sphaerotheca fuliginea; application rate 25 g/ha): 45%
